Source: ChEMBL document CHEMBL1129076 (J Med Chem, 1996)

Tests used:
Vanilloid receptor [1] = biological target: T1, Vanilloid receptor (Rattus norvegicus, UniProt Q9ERZ8+Q9WUD2+O35433); test: Calcium +2 uptake into Dorsal Root Ganglion(DRG) neurons; format: functional, tissue-based
[2] = biological target: Transient receptor potential cation channel subfamily V member 1 (Rattus norvegicus) (UniProt O35433); test: Relative potency(RTX) against Dorsal Root Ganglion (DRG) membranes using RTX binding assay.; format: functional, tissue-based
Transient receptor potential cation channel subfamily V member 1 (Rattus norvegicus), sequence (O35433 whole entry): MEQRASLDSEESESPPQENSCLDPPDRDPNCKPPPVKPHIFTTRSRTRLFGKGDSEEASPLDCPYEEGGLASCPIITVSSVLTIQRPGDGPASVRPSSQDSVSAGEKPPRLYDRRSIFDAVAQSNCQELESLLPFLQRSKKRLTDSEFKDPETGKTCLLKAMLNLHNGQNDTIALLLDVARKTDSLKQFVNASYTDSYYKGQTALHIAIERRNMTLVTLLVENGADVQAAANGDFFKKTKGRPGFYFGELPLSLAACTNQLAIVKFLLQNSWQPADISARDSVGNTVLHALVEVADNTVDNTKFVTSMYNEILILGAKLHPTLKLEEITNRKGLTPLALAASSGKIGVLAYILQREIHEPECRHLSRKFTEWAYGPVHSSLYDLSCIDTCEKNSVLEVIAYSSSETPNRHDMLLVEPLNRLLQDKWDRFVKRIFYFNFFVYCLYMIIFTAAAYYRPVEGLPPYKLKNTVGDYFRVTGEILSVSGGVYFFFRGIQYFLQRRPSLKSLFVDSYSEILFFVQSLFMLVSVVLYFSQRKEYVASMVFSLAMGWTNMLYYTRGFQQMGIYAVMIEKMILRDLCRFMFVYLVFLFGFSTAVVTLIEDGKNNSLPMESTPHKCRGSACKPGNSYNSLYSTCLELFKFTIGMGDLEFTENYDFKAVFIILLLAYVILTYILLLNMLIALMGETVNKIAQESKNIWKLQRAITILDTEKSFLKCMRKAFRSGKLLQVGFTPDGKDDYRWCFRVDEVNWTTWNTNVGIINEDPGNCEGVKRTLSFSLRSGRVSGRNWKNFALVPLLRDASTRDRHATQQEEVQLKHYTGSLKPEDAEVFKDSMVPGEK

Vanilloid receptor [3] = biological target: T1, Vanilloid receptor; test: Ability to stimulate uptake of Calcium into Dorsal Root Ganglion(DRG) neurons; format: functional, tissue-based
[4] = biological target: Transient receptor potential cation channel subfamily V member 1 (Rattus norvegicus, UniProt O35433); test: Binding affinity against Vanilloid receptor in dorsal Root Ganglion (DRG) membranes using [3H]RTX binding assay.; format: tissue-based
Transient receptor potential cation channel subfamily V member 1, sequence (O35433 whole entry): as above

[5] = biological target: Transient receptor potential cation channel subfamily V member 1 (Rattus norvegicus) (UniProt O35433); test: Binding affinity against Vanilloid receptor in dorsal root ganglion (DRG) membranes relative to resinferatoxin (RTX); not tested; format: tissue-based
[6] = biological target: Transient receptor potential cation channel subfamily V member 1 (Rattus norvegicus) (UniProt O35433); test: Relative potency against RTX binding to Dorsal Root Ganglion (DRG) membranes; format: functional, tissue-based

C=C(C)[C@@]12C[C@@H](C)C34OC(Cc5ccccc5)(OC1[C@@H]3C=C(COC(C)=O)C[C@]1(O)C(=O)C(C)=C[C@@H]41)O2 (stereo partly drawn)
EC50 (Vanilloid receptor [1]): > 2000 nM

C=C(C)[C@@]12C[C@@H](C)C34OC(Cc5ccccc5)(OC1[C@@H]3C=C(COC(=O)Cc1cccc(OC)c1)C[C@]1(O)C(=O)C(C)=C[C@@H]41)O2 (stereo partly drawn)
EC50 (Vanilloid receptor [1]): 7.89 nM

CCCCCCCCC(=O)NCc1ccc(OCCN)c(OC)c1
EC50 (Vanilloid receptor [1]): 410 nM

CCCCCCCCC(=O)NCc1cccc(OC)c1
EC50 (Vanilloid receptor [1]): > 100000 nM

CCCCCCCCC(=O)NCc1ccc(OC)c(OC)c1
EC50 (Vanilloid receptor [1]): > 6410 nM

C=C(C)[C@@]12C[C@@H](C)C34OC(Cc5ccccc5)(OC1[C@@H]3C=C(CNC(=O)Cc1ccc(O)c(OC)c1)C[C@]1(O)C(=O)C(C)=C[C@@H]41)O2 (stereo partly drawn)
Relative Potency [2]: 0.013
EC50 (Vanilloid receptor [3]): 122 nM
Ki [4]: 10.6 nM
Relative affinity [5]: 0.011

COc1cc(CC(=O)OC/C=C/[C@H]2[C@H]3OC4(Cc5ccccc5)O[C@H]3CC[C@H]2O4)ccc1O
EC50 (Vanilloid receptor [1]): 9150 nM

C=C(C)[C@@]12C[C@@H](C)C34OC(C)(OC1[C@@H]3C=C(COC(=O)Cc1ccc(O)c(OC)c1)C[C@]1(O)C(=O)C(C)=C[C@@H]41)O2 (stereo partly drawn)
Relative Potency [2]: 0.122
EC50 (Vanilloid receptor [3]): 13.2 nM
Ki [4]: 3.2 nM
Relative affinity [5]: 0.038

COc1cc(CC(=O)OCC2=C[C@H]3[C@@H]4C(C)(C)[C@]4(OC(C)=O)C(OC(C)=O)[C@@H](C)C3(O)[C@@H]3C=C(C)C(=O)[C@@]3(OC)C2)ccc1O (stereo partly drawn)
EC50 (Vanilloid receptor [1]): 8510 nM

C=C(C)[C@@]12C[C@@H](C)C34OC(Cc5ccccc5)(OC1[C@@H]3C=C(COC(=O)Cc1ccc(OC)c(N=[N+]=[N-])c1)C[C@]1(O)C(=O)C(C)=C[C@@H]41)O2 (stereo partly drawn)
EC50 (Vanilloid receptor [1]): 10.64 nM

C=C(C)[C@@]12C[C@@H](C)C34OC(c5ccccc5)(OC1[C@@H]3C=C(COC(=O)Cc1ccc(O)c(OC)c1)C[C@]1(O)C(=O)C(C)=C[C@@H]41)O2 (stereo partly drawn)
Relative Potency [2]: 0.21
EC50 (Vanilloid receptor [3]): 7.6 nM
Ki [4]: 0.17 nM
Relative affinity [5]: 0.706

C=C(C)C12C[C@@H](C)C34OC(Cc5ccccc5)(OC1[C@@H]3C=C(COC(=O)Cc1ccc(OCCN)c(OC)c1)C[C@]1(O)C(=O)C(C)=CC41)O2 (single isomer, unassigned)
Relative Potency [2]: 0.123
EC50 (Vanilloid receptor [3]): 13.04 nM
Ki [4]: 4.3 nM
Relative affinity [5]: 0.028

C=C(C)C12C[C@@H](C)C34OC(Cc5ccccc5)(OC1[C@@H]3C=C(COC(=O)Cc1ccccc1)C[C@]1(O)C(=O)C(C)=CC41)O2 (single isomer, unassigned)
EC50 (Vanilloid receptor [1]): 10.22 nM
Relative Potency [6]: 0.157
EC50 (Vanilloid receptor [3]): 10.22 nM
Ki [4]: 8.3 nM
Relative affinity [5]: 0.015

C=C(C)C12C[C@@H](C)C34OC(Cc5ccccc5)(OC1[C@@H]3C=C(COC(=O)Cc1ccc(OC)c(OC)c1)C[C@]1(O)C(=O)C(C)=CC41)O2 (single isomer, unassigned)
Relative Potency [2]: 0.107
EC50 (Vanilloid receptor [3]): 14.89 nM
Ki [4]: 1 nM
Relative affinity [5]: 0.12

C=C(C)C12C[C@@H](C)C34OC(Cc5ccccc5)(OC1[C@@H]3C=C(COC(=O)Cc1ccc(O)c(OC)c1)C[C@]1(OC)C(=O)C(C)=C[C@@H]41)O2 (single isomer, unassigned)
EC50 (Vanilloid receptor [1]): 5.3 nM

C=C(C)C12C[C@@H](C)C34OC(Cc5ccccc5)(OC1[C@@H]3C=C(CO)C[C@]1(O)C(=O)C(C)=CC41)O2 (single isomer, unassigned)
Relative Potency [2]: < 8e-05
EC50 (Vanilloid receptor [3]): > 20000 nM
Ki [4]: > 10000 nM
Relative affinity [5]: < 1e-05

CCCCCCCCC(=O)NCc1ccc(O)c(OC)c1 [NONIVAMIDE]
EC50 (Vanilloid receptor [1]): > 550 nM

C=C(C)[C@]12C[C@@H](C)[C@@]34O[C@](Cc5ccccc5)(O[C@@H]1[C@@H]3C=C(COC(=O)Cc1ccc(O)c(OC)c1)C[C@]1(O)C(=O)C(C)=C[C@@H]41)O2 [RESINIFERATOXIN]
Relative Potency [2]: 1
EC50 (Vanilloid receptor [3]): 1.6 nM
Ki [4]: 0.12 nM
Relative affinity [5]: 1
